{
  "source": "PubChem BioAssay (NCI)",
  "note": "“And” between values parts separate entries of the source, which are not always exact repeats. Equal values may be shown once.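 Each compound was tested at five concentrations against cells in 96-well plates for 48 hours. GI50 = concentration required for 50% inhibition of growth. TGI: total growth inhibition.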",
  "data": [
    {"tested_on": "HOP-92 NSCLC", "experiment": "inhibition of tumour cell growth, NCI panel, 48 h", "units": {"GI50": "µM"}, "values": [
      {"smiles": "CC1(C)OC2C(CO[Si](C)(C)C(C)(C)C)OC(n3c(I)c(C#C[Si](C)(C)C)c(=O)[nH]c3=O)C2O1", "note": "(stereo unspecified)", "GI50": 0.0445, "TGI": "14.1 µM"},
      {"smiles": "CN(C)CC[C@H](CSc1ccccc1)Nc1ccc(S(=O)(=O)NC(=O)c2ccc(N3CCN(Cc4ccccc4-c4ccc(Cl)cc4)CC3)cc2)cc1[N+](=O)[O-]", "GI50": 0.186, "TGI": "0.833 µM"},
      {"smiles": "COc1ccc(-c2ccc(=O)oc2C#Cc2cc(OC)c(OC)c(OC)c2)cc1O", "GI50": 0.999, "TGI": "9.87 µM"},
      {"smiles": "O=C(/C=C/c1ccc[nH]1)c1ccc(-n2ccc(C(F)(F)F)n2)cc1", "GI50": "> 100", "TGI": "> 100 µM"},
      {"smiles": "O=C(c1ccco1)c1c(C(F)(F)F)nc2ccc(Cl)cc2[n+]1[O-]", "GI50": 44, "TGI": "> 100 µM"},
      {"smiles": "Clc1cc2c(c(CSc3nc4ccccc4n4cccc34)c1)OCOC2", "GI50": 5.36, "TGI": "35.5 µM"},
      {"smiles": "CN1CCN(c2ccc(Nc3cc(-c4cccc(-n5ccc6cc(C7CC7)cc(F)c6c5=O)c4CO)cn(C)c3=O)nc2)CC1", "GI50": 1.89, "TGI": "8.42 µM"},
      {"smiles": "COc1ccc2nc3ccccc3c(NCc3ccc(F)cc3)c2c1", "GI50": 1.39, "TGI": "6.6 µM"},
      {"smiles": "COc1cc(N=Nc2ccc(O)c3ncccc23)c2ncccc2c1", "GI50": 1.97, "TGI": "> 100 µM"},
      {"smiles": "CCn1c(O)c(/C=N/NC(=O)C(C)c2ccc(CC(C)C)cc2)sc1=S", "note": "(stereo unspecified)", "GI50": 0.806, "TGI": "9.65 µM"},
      {"smiles": "C[C@@H]1C[C@@H]([C@@H](CC2CC(=O)NC(=O)C2)OC(=O)CC(=O)c2ccccc2)C(=O)[C@@H](C)C1", "GI50": 0.324, "TGI": "> 24.9 µM"},
      {"smiles": "Cc1nc(Nc2cccnc2)sc1C(=O)/C=C/c1ccc(F)cc1", "GI50": 3.1, "TGI": "9.98 µM"},
      {"smiles": "N=c1c2c(-c3ccccc3)c(-c3ccccc3)n(Cc3ccccc3)c2ncn1C1CCC(O)CC1", "note": "(stereo unspecified)", "GI50": 0.24, "TGI": "4.33 µM"},
      {"smiles": "O=c1c(F)cn(Cc2ccc(C34CC5CC(CC(C5)C3)C4)c(O)c2)c(=O)n1Cc1ccc(C23CC4CC(CC(C4)C2)C3)c(O)c1", "GI50": 12.4, "TGI": "28.7 µM"},
      {"smiles": "CCOC(=O)Nc1cc2c(c(N)n1)N=C(c1ccccc1)CO2", "GI50": 7.13, "TGI": "29.1 µM"},
      {"smiles": "CC1CC2CCCC(O)=C2C(=O)O1", "note": "(stereo unspecified)", "TGI": "> 100 µM"},
      {"smiles": "CC(C)(/C=C(\\C#N)C(=O)N1CCC[C@@H](n2nc(-c3ccc(Oc4ccccc4)cc3F)c3c(N)ncnc32)C1)N1CCN(C2COC2)CC1", "GI50": 2.8, "TGI": "11.1 µM"},
      {"smiles": "O=c1oc2ccc(-c3ccc(F)cc3F)cc2c(=O)n1-c1cccc(C(F)(F)F)c1", "GI50": 0.172, "TGI": "0.931 µM"},
      {"smiles": "O=C(Cc1ccc(F)c(Cl)c1)Nc1cc(C2(C(F)(F)F)CC2)nn1CC1CCCCC1", "GI50": 2.69, "TGI": "10.7 µM"},
      {"smiles": "NNC(=O)CNc1cccc(Br)c1", "TGI": "> 100 µM"},
      {"smiles": "NC(N)=NCCCC(=O)O", "TGI": "> 100 µM"},
      {"smiles": "CCN1CCN(c2cc(C)c3cc(NC(=O)c4ccc(OC)c(OC)c4)ccc3n2)CC1", "GI50": 13.4, "TGI": "85.5 µM"},
      {"smiles": "COC(=O)c1c2c(c(C)[n+]([O-])c1C)C(=O)C=C(NCc1ccc(F)cc1)C2=O", "GI50": 1.72, "TGI": "3.83 µM"},
      {"smiles": "CCCC(=O)Nc1cn(COC)c(C(=O)N2C[C@@H]3C[C@]34C2=CC(=O)c2[nH]cc(C)c24)n1", "GI50": 5.51, "TGI": "20.6 µM and 18.2 µM"},
      {"smiles": "CC(=O)Nc1ccc(-c2csc(Nc3cccc(-c4csc(C)n4)c3)n2)cc1", "TGI": "> 23.1 µM"}
    ]},
    {"tested_on": "HCT-116 colon", "experiment": "inhibition of tumour cell growth, NCI panel, 48 h", "units": {"GI50": "µM"}, "values": [
      {"smiles": "CC1(C)OC2C(CO[Si](C)(C)C(C)(C)C)OC(n3c(I)c(C#C[Si](C)(C)C)c(=O)[nH]c3=O)C2O1", "note": "(stereo unspecified)", "GI50": 1.66, "TGI": "3.37 µM"},
      {"smiles": "CN(C)CC[C@H](CSc1ccccc1)Nc1ccc(S(=O)(=O)NC(=O)c2ccc(N3CCN(Cc4ccccc4-c4ccc(Cl)cc4)CC3)cc2)cc1[N+](=O)[O-]", "GI50": 2.93, "TGI": "> 27.3 µM"},
      {"smiles": "COc1ccc(-c2ccc(=O)oc2C#Cc2cc(OC)c(OC)c(OC)c2)cc1O", "GI50": 0.249, "TGI": "> 91.9 µM"},
      {"smiles": "O=C(/C=C/c1ccc[nH]1)c1ccc(-n2ccc(C(F)(F)F)n2)cc1", "GI50": "> 100", "TGI": "> 100 µM"},
      {"smiles": "O=C(c1ccco1)c1c(C(F)(F)F)nc2ccc(Cl)cc2[n+]1[O-]", "GI50": "> 100", "TGI": "> 100 µM"},
      {"smiles": "Clc1cc2c(c(CSc3nc4ccccc4n4cccc34)c1)OCOC2", "GI50": "> 100", "TGI": "> 100 µM"},
      {"smiles": "CN1CCN(c2ccc(Nc3cc(-c4cccc(-n5ccc6cc(C7CC7)cc(F)c6c5=O)c4CO)cn(C)c3=O)nc2)CC1", "GI50": 3.31, "TGI": "18.9 µM"},
      {"smiles": "COc1ccc2nc3ccccc3c(NCc3ccc(F)cc3)c2c1", "GI50": 1.75, "TGI": "6.5 µM"},
      {"smiles": "COc1cc(N=Nc2ccc(O)c3ncccc23)c2ncccc2c1", "GI50": 2.56, "TGI": "> 100 µM"},
      {"smiles": "CCn1c(O)c(/C=N/NC(=O)C(C)c2ccc(CC(C)C)cc2)sc1=S", "note": "(stereo unspecified)", "GI50": 0.397, "TGI": "> 36.9 µM"},
      {"smiles": "C[C@@H]1C[C@@H]([C@@H](CC2CC(=O)NC(=O)C2)OC(=O)CC(=O)c2ccccc2)C(=O)[C@@H](C)C1", "GI50": 0.489, "TGI": "> 45.2 µM"},
      {"smiles": "Cc1nc(Nc2cccnc2)sc1C(=O)/C=C/c1ccc(F)cc1", "GI50": 1.64, "TGI": "4.18 µM"},
      {"smiles": "N=c1c2c(-c3ccccc3)c(-c3ccccc3)n(Cc3ccccc3)c2ncn1C1CCC(O)CC1", "note": "(stereo unspecified)", "GI50": 0.0446, "TGI": "1.75 µM"},
      {"smiles": "O=c1c(F)cn(Cc2ccc(C34CC5CC(CC(C5)C3)C4)c(O)c2)c(=O)n1Cc1ccc(C23CC4CC(CC(C4)C2)C3)c(O)c1", "GI50": 11.1, "TGI": "25 µM"},
      {"smiles": "CCOC(=O)Nc1cc2c(c(N)n1)N=C(c1ccccc1)CO2", "GI50": 0.084, "TGI": "13.9 µM"},
      {"smiles": "CC1CC2CCCC(O)=C2C(=O)O1", "note": "(stereo unspecified)", "TGI": "> 100 µM"},
      {"smiles": "CC(C)(/C=C(\\C#N)C(=O)N1CCC[C@@H](n2nc(-c3ccc(Oc4ccccc4)cc3F)c3c(N)ncnc32)C1)N1CCN(C2COC2)CC1", "GI50": 6.31, "TGI": "20.1 µM"},
      {"smiles": "O=c1oc2ccc(-c3ccc(F)cc3F)cc2c(=O)n1-c1cccc(C(F)(F)F)c1", "GI50": 1.33, "TGI": "3.45 µM"},
      {"smiles": "O=C(Cc1ccc(F)c(Cl)c1)Nc1cc(C2(C(F)(F)F)CC2)nn1CC1CCCCC1", "GI50": 3.88, "TGI": "> 15 µM"},
      {"smiles": "NNC(=O)CNc1cccc(Br)c1", "TGI": "> 100 µM"},
      {"smiles": "NC(N)=NCCCC(=O)O", "TGI": "> 100 µM"},
      {"smiles": "CCN1CCN(c2cc(C)c3cc(NC(=O)c4ccc(OC)c(OC)c4)ccc3n2)CC1", "GI50": 3.16, "TGI": "> 100 µM"},
      {"smiles": "COC(=O)c1c2c(c(C)[n+]([O-])c1C)C(=O)C=C(NCc1ccc(F)cc1)C2=O", "GI50": 0.319, "TGI": "1.18 µM"},
      {"smiles": "CCCC(=O)Nc1cn(COC)c(C(=O)N2C[C@@H]3C[C@]34C2=CC(=O)c2[nH]cc(C)c24)n1", "TGI": "50 µM and 82.4 µM"},
      {"smiles": "CC(=O)Nc1ccc(-c2csc(Nc3cccc(-c4csc(C)n4)c3)n2)cc1", "GI50": 0.697, "TGI": "> 26.7 µM"}
    ]},
    {"tested_on": "PC-3 prostate", "experiment": "inhibition of tumour cell growth, NCI panel, 48 h", "units": {"GI50": "µM", "TGI": "µM"}, "values": [
      {"smiles": "CC1(C)OC2C(CO[Si](C)(C)C(C)(C)C)OC(n3c(I)c(C#C[Si](C)(C)C)c(=O)[nH]c3=O)C2O1", "note": "(stereo unspecified)", "GI50": 2.04, "TGI": 4.13},
      {"smiles": "CN(C)CC[C@H](CSc1ccccc1)Nc1ccc(S(=O)(=O)NC(=O)c2ccc(N3CCN(Cc4ccccc4-c4ccc(Cl)cc4)CC3)cc2)cc1[N+](=O)[O-]", "GI50": 4.07, "TGI": "> 100"},
      {"smiles": "COc1ccc(-c2ccc(=O)oc2C#Cc2cc(OC)c(OC)c(OC)c2)cc1O", "GI50": 0.621, "TGI": "> 100"},
      {"smiles": "O=C(/C=C/c1ccc[nH]1)c1ccc(-n2ccc(C(F)(F)F)n2)cc1", "GI50": 0.371, "TGI": "> 100"},
      {"smiles": "O=C(c1ccco1)c1c(C(F)(F)F)nc2ccc(Cl)cc2[n+]1[O-]", "GI50": "> 100", "TGI": "> 100"},
      {"smiles": "Clc1cc2c(c(CSc3nc4ccccc4n4cccc34)c1)OCOC2", "GI50": "> 100", "TGI": "> 100"},
      {"smiles": "CN1CCN(c2ccc(Nc3cc(-c4cccc(-n5ccc6cc(C7CC7)cc(F)c6c5=O)c4CO)cn(C)c3=O)nc2)CC1", "GI50": 8.93, "TGI": 25.2},
      {"smiles": "COc1ccc2nc3ccccc3c(NCc3ccc(F)cc3)c2c1", "GI50": 1.96, "TGI": 8.01},
      {"smiles": "COc1cc(N=Nc2ccc(O)c3ncccc23)c2ncccc2c1", "GI50": 2.84, "TGI": "> 100"},
      {"smiles": "CCn1c(O)c(/C=N/NC(=O)C(C)c2ccc(CC(C)C)cc2)sc1=S", "note": "(stereo unspecified)", "GI50": 0.415, "TGI": "> 41.4"},
      {"smiles": "C[C@@H]1C[C@@H]([C@@H](CC2CC(=O)NC(=O)C2)OC(=O)CC(=O)c2ccccc2)C(=O)[C@@H](C)C1", "GI50": 0.444, "TGI": "> 100"},
      {"smiles": "Cc1nc(Nc2cccnc2)sc1C(=O)/C=C/c1ccc(F)cc1", "GI50": 4.07, "TGI": 20.1}
    ]}
  ]
}
